In BindingDB's records for patent US10227314 (Sova Pharmaceuticals, 2019) one finds IC50 data, which are given here for two compounds.

SMILES strings stand for the structures.

The assay has as its target Cystathionine gamma-lyase (Homo sapiens, UniProt P32929). Description: CSE In Vitro Assay.

Chain of Cystathionine gamma-lyase (P32929 whole entry): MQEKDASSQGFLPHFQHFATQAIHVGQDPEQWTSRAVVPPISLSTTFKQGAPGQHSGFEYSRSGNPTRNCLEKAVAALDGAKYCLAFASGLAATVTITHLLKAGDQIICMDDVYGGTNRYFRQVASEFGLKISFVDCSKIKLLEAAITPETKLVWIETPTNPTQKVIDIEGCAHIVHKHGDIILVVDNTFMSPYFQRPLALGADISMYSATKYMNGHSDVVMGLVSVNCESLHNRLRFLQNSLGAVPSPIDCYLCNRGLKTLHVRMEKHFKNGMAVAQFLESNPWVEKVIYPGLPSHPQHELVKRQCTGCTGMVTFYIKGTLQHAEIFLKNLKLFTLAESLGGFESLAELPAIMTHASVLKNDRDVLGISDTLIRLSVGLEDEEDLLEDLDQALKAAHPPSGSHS

As usually defined, the IC50 is the concentration needed to halve the response being measured. The compound `N#CCC(N)c1nnn[nH]1` (configuration not stated) [US10227314, Example 1] gave an IC50 of more than 100 µM. With `C#CC[C@H](N)c1nnn[nH]1` [US10227314, Example 2] the figure was less than 25 µM.
